“Also recorded” adds a separate entry of the source. Read-outs that look alike come from different tables or passages of the source.
What was measured:
[1] = test system: ERK1/2; test: Immunoblot analysis of ERK1/2 phosphorylation in ASM cells; type: cell-based, human
Source text: (§1) Detection of PDE4D5 mRNA transcripts: Total RNA was extracted from the cultured ASM cells using the TRIzol method (Invitrogen), and cDNAs were isolated by RT-PCR using the SuperScript First Strand Synthesis System kit from Invitrogen, with the following oligonucleotide primer sets (Integrated DNA Technologies): for PDE4D5, 5′-[…]-3′ (forward; SEQ ID NO: 2) and 5′-[…]-3′ (reverse; SEQ ID NO: 3); and for β-actin, 5′-[…]-3′ (forward; SEQ ID NO: 4) and 5′-[…]-3′ (reverse; SEQ ID NO: 5). The reaction volume was 20 μl and cycling conditions used were 35 cycles of 30 sec denaturation at 95° C., followed by 30 sec annealing at 60° C. and elongation at 72° C. for 30 sec. Ex-Tag (Takara Biotechnology) was used as DNA polymerase. […] Following protein extraction and the addition of gel-loading buffer, the extracts were loaded on a 10% SDS-PAGE gel for immunoblotting after transfer to a PVDF membrane. The membranes were then incubated overnight with monoclonal mouse anti-human primary antibodies directed against phospho-CREB and -ATF1, phospho-ERK1/2, or α-actin, and levels were detected by ECL after a 1-hr incubation with a 1:2,000 dilution of HRP-conjugated rabbit anti-mouse secondary antibody, followed by exposure to autoradiography film. The protein band intensities were quantified by densitometry. siRNA-mediated knockdown of PKA: ASM cells were seeded into 6-well plates and, at ˜40% confluency, the medium was replaced with the reduced serum-containing medium, Opti-MEM (Invitrogen). The cells were then transfected twice during a 24-hr interval with two pools of three siRNA duplexes, each pool targeted against the human PKAα or PKAγ catalytic subunits (Santa Cruz Biotechnology; sc-36240 and sc-36236, respectively), or with a non-targeted control (scrambled) siRNA duplex, using Oligofectamine (Invitrogen) as the transfection agent. The pools of siRNAs were applied to each well at a final concentration of 100 nM for each siRNA preparation. […] Transfection of ASM cells with adeno-βARK-ct: Adenovirus (adeno)-βARK-ct, an adenovirus vector encoding the βARK1 carboxyl-terminal domain which blocks Gβγ signaling (25,26), and adeno-β-gal, an adenovirus vector expressing lacZ as a negative control, were constructed using the AdenoX adenovirus construction kit (BD-Clontech). Recombinant plaques were isolated and propagated in HEK293 cells (Invitrogen), with viral purification using the cesium chloride gradient method, and viral titer detected by plaque assay. The ASM cells were transfected with either of the adenoviral vectors at a multiplicity of infection (MOI) of 100, and experiments were conducted at 24 hr following adenoviral tranfections. Pharmacodynamic studies of constrictor and relaxation responsiveness in rabbit ASM tissues: Following initial sedation and subsequent general anesthesia with intramuscular injections of xylazine (10 mg/kg) and ketamine (50 mg/kg), respectively, rabbits were sacrificed with an intravenously administered overdose of sodium pentobarbital (100 mg/kg). As described previously (16), the tracheae were excised via open thoracotomy, the loose connective tissue and epithelium were scraped and removed, and the tracheae were divided into 8 ring segments, each of 6-8 mm in length. […] After these incubations, the tissues were placed in organ baths containing modified Krebs-Ringer solution aerated with 5% CO2 in oxygen (pH of 7.35-7.40), and attached to force transducers to continuously monitor isometric tension. […] The constrictor and relaxation dose-response curves were analyzed with respect to each tissue's maximal isometric contractile force (Tmax) to ACh and maximal relaxation response (Rmax) to isoproterenol from the initial level of active cholinergic contraction. Statistical analyses: Results are expressed as mean±SE values. Comparisons between groups were made using the Student's t-test (two-tailed) or ANOVA with Tukey's post-test analysis, where appropriate.

[2] = test system: PDE4D5 mRNA; test: Detection of PDE4D5 mRNA transcripts by RT-PCR in ASM cells; type: cell-based, human
Source text: as §1

[3] = test system: CREB/ATF1; test: Immunoblot analysis of CREB/ATF1 phosphorylation in ASM cells; type: cell-based, human
Source text: as §1

[4] = test system: rabbit ASM tissues; test: Constrictor responsiveness to acetylcholine (ACh) in isolated rabbit ASM tissues, isometric tension in organ bath
Source text: as §1

[5] = test system: rabbit ASM tissues; test: Relaxation responsiveness to isoproterenol in isolated rabbit ASM tissues half-maximally contracted with ACh
Source text: as §1

[6] = test system: human ASM cells; test: Assay of cAMP PDE activity in ASM cell lysates; type: cell-based

With `COC(=O)[C@H](CC(C)C)NC(=O)c1ccc(NC[C@@H](N)CS)cc1-c1cccc2ccccc12` [GGTI-298] the “effect on PGE2-induced phosphorylation of ERK1/2” value ([1]; PGE2 100 nM, 30 min) was “did not exhibit attenuated; also recorded: no effect” and the “effect on isoproterenol (β2AR agonist)-induced phosphorylation of ERK1/2” value (from here on “effect on isoproterenol”) ([1]; isoproterenol 10 μM, 20 min) was “did not exhibit attenuated; also recorded: no effect”.

`O=C1Nc2ccc(I)cc2/C1=C/c1cc(Br)c(O)c(Br)c1` [GW5074] was tested, and the “effect on PGE2-induced phosphorylation of ERK1/2” value ([1]; PGE2 100 nM, 30 min) was “completely ablated; also recorded: prevents” and the “effect on isoproterenol” value ([1]; isoproterenol 10 μM, 20 min) was “completely abrogated; also recorded: prevents”.

For `Oc1ccc(-c2nc(-c3ccncc3)c(-c3ccc(F)cc3)[nH]2)cc1` [SB202190], the “effect of pretreatment on PGE2-induced upregulated PDE4D5 mRNA expression” value ([2]; PGE2 100 nM, 6 hr) was “neither the p38 MAPK nor JNK inhibitor (lanes 5 and 6, respectively) had an attenuating effect”, the “effect of pretreatment on β2AR agonist (isoproterenol)-induced upregulated PDE4D5 mRNA expression” value (from here on “effect of pretreatment on β2AR agonist”) ([2]; isoproterenol 10 μM, 6 hr) was “unaffected; also recorded: no effect” and the “effect on PGE2-induced phosphorylation of CREB/ATF1” value (“effect … of CREB/ATF1” for short) ([3]; PGE2 100 nM, 30 min) was “neither PGE2-induced phosphorylation of ERK1/2 nor CREB/ATF was affected”. For the same compound, the “effect on PGE2-induced phosphorylation of ERK1/2” value ([1]; PGE2 100 nM, 30 min) was “neither PGE2-induced phosphorylation of ERK1/2 nor CREB/ATF was affected”.

For `Oc1c2ccccc2c2c3c(cccc13)N=N2` [SP600125], the “effect of pretreatment on β2AR agonist” value ([2]; isoproterenol 10 μM, 6 hr) was “no effect”.

With `CN(C)S(=O)(=O)c1ccc2c(c1)/C(=C/c1cc3c([nH]1)CCCC3)C(=O)N2` [SU6656] the “effect of pretreatment on PGE2-induced upregulated PDE4D5 mRNA expression” value ([2]; PGE2 100 nM, 6 hr) was “ablated”, the “effect of pretreatment on PGE2-induced upregulated PDE4D5 mRNA expression” value ([2]; PGE2 100 nM, 6 hr, listed as Src inhibitor) was “markedly inhibited” and the “effect of pretreatment on β2AR agonist” value ([2]; isoproterenol 10 μM, 6 hr) was “prevented; also recorded: ablated”. The “effect … of CREB/ATF1” value ([3]; PGE2 100 nM, 30 min) was “largely prevented; also recorded: ablated” and the “effect on PGE2-induced phosphorylation of ERK1/2” value ([1]; PGE2 100 nM, 30 min) was “largely prevented; also recorded: ablated”.

`N#CC(=C(/N)Sc1ccccc1N)/C(C#N)=C(\N)Sc1ccccc1N` [U0126] was tested, and the “effect of pretreatment on PGE2-induced increase in constrictor responsiveness to ACh” value [4] was “abrogated”, the “effect of pretreatment on salmeterol-induced increase in constrictor responsiveness to ACh” value [4] was “completely abrogated; also recorded: prevents” and the “effect of the agent alone on constrictor responses to ACh” value [4] was “no significant effect; also recorded: did not exhibit any significant changes”. For the same compound, the “effect of pretreatment on PGE2-induced impaired relaxation to isoproterenol” value [5] was “abrogated”, the “effect of pretreatment on salmeterol-induced impaired relaxation to isoproterenol” value [5] was “completely ablated; also recorded: prevents” and the “effect of the agent alone on relaxation responses to isoproterenol” value [5] was “no significant effect; also recorded: did not exhibit any significant changes”. The “effect of pretreatment on PGE2-induced upregulated PDE4D5 mRNA expression” value [2] was “largely prevented; also recorded: ablated”, the “effect of pretreatment on β2AR agonist” value [2] was “largely prevented; also recorded: ablated” and the “effect … of CREB/ATF1” value [3] was “abrogated; also recorded: ablated”. For the same compound, the “effect on PGE2-induced phosphorylation of ERK1/2” value [1] was “completely abrogated; also recorded: ablated”, the “effect on isoproterenol” value [1] was “ablated” and the “effect of pretreatment on PGE2- and forskolin-induced increases in PDE activity” value [6] was “completely ablated”. The “effect of pretreatment on salmeterol- and isoproterenol-induced increase in PDE activity” value [6] was “prevented; also recorded: ablated” and the “effect of the agent alone on basal PDE activity” value [6] was “neither H89 nor U0126 alone had a significant effect”.

From patent publication US8569229B2, “Compositions and methods which modulate G-protein signaling for the treatment of inflammatory disorders such as asthma and allergic conjunctivitis” (The Children's Hospital of Philadelphia, priority 2008, dated 2013)
